Assay results published in PubChem BioAssay AID2060886 (Molecular Pharmacology Branch, DTP, NCI, 2025).
pIC50: −log10 of the molar value. Blank lines part the entries; values can stand above or below the compound they belong to.

Tested on: 653999-131-R-J2-PDC complex spheroids, growth inhibition
Assay: Anticancer human tumor 653999-131-R-J2-PDC patient-derived lung adenocarcinoma cell line growth inhibition [RAS]
Settings: for pIC50: curve of first compound; for viability, T/C: stronger effect = lower value
Procedure, shortened: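 Agents were tested in combination matrices in half-log decrements from a top concentration at or near clinical Cmax (10 microM if undetermined). Targets were multi-cell spheroids of tumour lines plus HUVEC and MSC stromal cells.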
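Further: spheroids exposed to the agents for seven days before the readout.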

pIC50 (second compound 0.0316 µM): < 6.52
pIC50 (second compound 0.1 µM): < 6.52
pIC50 (second compound 0.316 µM): 8.57
pIC50 (second compound 1 µM): > 9.02
pIC50 (second compound 3.16 µM): > 9.02
pIC50 (second compound 10 µM): > 9.02
Structure (SMILES): CC1(C)CCC(Nc2ncc(C(F)(F)F)c(-c3c[nH]c4c(P(C)(C)=O)c(C#N)ccc34)n2)CN1 (stereo unspecified) + C#Cc1c(F)ccc2cc(O)cc(-c3ncc4c(N5CC6CCC(C5)N6)nc(OCC56CCCN5CC(F)C6)nc4c3F)c12
viability, T/C (second compound 0.0316 µM, first compound 0.000949 µM): 84.7%
viability, T/C (second compound 0.0316 µM, first compound 0.003 µM): 66.3%
viability, T/C (second compound 0.0316 µM, first compound 0.00949 µM): 62.9%
viability, T/C (second compound 0.0316 µM, first compound 0.03 µM): 61.5%
viability, T/C (second compound 0.0316 µM, first compound 0.0949 µM): 55.3%
viability, T/C (second compound 0.0316 µM, first compound 0.3 µM): 55.6%
viability, T/C (second compound 0.1 µM, first compound 0.000949 µM): 69.9%
viability, T/C (second compound 0.1 µM, first compound 0.003 µM): 64.2%
viability, T/C (second compound 0.1 µM, first compound 0.00949 µM): 59%
viability, T/C (second compound 0.1 µM, first compound 0.03 µM): 56.4%
viability, T/C (second compound 0.1 µM, first compound 0.0949 µM): 72.7%
viability, T/C (second compound 0.1 µM, first compound 0.3 µM): 55.6%
viability, T/C (second compound 0.316 µM, first compound 0.000949 µM): 59.6%
viability, T/C (second compound 0.316 µM, first compound 0.003 µM): 48.3%
viability, T/C (second compound 0.316 µM, first compound 0.00949 µM): 46.9%
viability, T/C (second compound 0.316 µM, first compound 0.03 µM): 47.3%
viability, T/C (second compound 0.316 µM, first compound 0.0949 µM): 44.4%
viability, T/C (second compound 0.316 µM, first compound 0.3 µM): 43.5%
viability, T/C (second compound 1 µM, first compound 0.000949 µM): 37.5%
viability, T/C (second compound 1 µM, first compound 0.003 µM): 36.3%
viability, T/C (second compound 1 µM, first compound 0.00949 µM): 37.1%
viability, T/C (second compound 1 µM, first compound 0.03 µM): 38.1%
viability, T/C (second compound 1 µM, first compound 0.0949 µM): 37.7%
viability, T/C (second compound 1 µM, first compound 0.3 µM): 39.3%
viability, T/C (second compound 3.16 µM, first compound 0.000949 µM): 33.8%
viability, T/C (second compound 3.16 µM, first compound 0.003 µM): 26.8%
viability, T/C (second compound 3.16 µM, first compound 0.00949 µM): 21.6%
viability, T/C (second compound 3.16 µM, first compound 0.03 µM): 22.1%
viability, T/C (second compound 3.16 µM, first compound 0.0949 µM): 27.1%
viability, T/C (second compound 3.16 µM, first compound 0.3 µM): 27.4%
viability, T/C (second compound 10 µM, first compound 0.000949 µM): 26.4%
viability, T/C (second compound 10 µM, first compound 0.003 µM): 20.2%
viability, T/C (second compound 10 µM, first compound 0.00949 µM): 16.7%
viability, T/C (second compound 10 µM, first compound 0.03 µM): 14.1%
viability, T/C (second compound 10 µM, first compound 0.0949 µM): 16.9%
viability, T/C (second compound 10 µM, first compound 0.3 µM): 17.4%

pIC50 (second compound 0.0316 µM): < 6.00
pIC50 (second compound 0.1 µM): < 6.00
pIC50 (second compound 0.316 µM): 7.55
pIC50 (second compound 1 µM): > 8.50
pIC50 (second compound 3.16 µM): > 8.50
pIC50 (second compound 10 µM): > 8.50
Structure (SMILES): CCN1CCN(Cc2ccc(Nc3ncc(F)c(-c4cc(F)c5nc(C)n(C(C)C)c5c4)n3)nc2)CC1 + C#Cc1c(F)ccc2cc(O)cc(-c3ncc4c(N5CC6CCC(C5)N6)nc(OCC56CCCN5CC(F)C6)nc4c3F)c12
viability, T/C (second compound 0.0316 µM, first compound 0.00316 µM): 74.8%
viability, T/C (second compound 0.0316 µM, first compound 0.01 µM): 88.1%
viability, T/C (second compound 0.0316 µM, first compound 0.0316 µM): 65.6%
viability, T/C (second compound 0.0316 µM, first compound 0.1 µM): 57.4%
viability, T/C (second compound 0.0316 µM, first compound 0.316 µM): 62%
viability, T/C (second compound 0.0316 µM, first compound 1 µM): 63.2%
viability, T/C (second compound 0.1 µM, first compound 0.00316 µM): 70.5%
viability, T/C (second compound 0.1 µM, first compound 0.01 µM): 71.8%
viability, T/C (second compound 0.1 µM, first compound 0.0316 µM): 57.2%
viability, T/C (second compound 0.1 µM, first compound 0.1 µM): 52.1%
viability, T/C (second compound 0.1 µM, first compound 0.316 µM): 54.8%
viability, T/C (second compound 0.1 µM, first compound 1 µM): 61%
viability, T/C (second compound 0.316 µM, first compound 0.00316 µM): 64.7%
viability, T/C (second compound 0.316 µM, first compound 0.01 µM): 62.8%
viability, T/C (second compound 0.316 µM, first compound 0.0316 µM): 43.8%
viability, T/C (second compound 0.316 µM, first compound 0.1 µM): 49.3%
viability, T/C (second compound 0.316 µM, first compound 0.316 µM): 50.8%
viability, T/C (second compound 0.316 µM, first compound 1 µM): 50.5%
viability, T/C (second compound 1 µM, first compound 0.00316 µM): 37.7%
viability, T/C (second compound 1 µM, first compound 0.01 µM): 43.6%
viability, T/C (second compound 1 µM, first compound 0.0316 µM): 39.9%
viability, T/C (second compound 1 µM, first compound 0.1 µM): 30.9%
viability, T/C (second compound 1 µM, first compound 0.316 µM): 29.9%
viability, T/C (second compound 1 µM, first compound 1 µM): 41.7%
viability, T/C (second compound 3.16 µM, first compound 0.00316 µM): 35.3%
viability, T/C (second compound 3.16 µM, first compound 0.01 µM): 31.7%
viability, T/C (second compound 3.16 µM, first compound 0.0316 µM): 34.4%
viability, T/C (second compound 3.16 µM, first compound 0.1 µM): 26.6%
viability, T/C (second compound 3.16 µM, first compound 0.316 µM): 33.3%
viability, T/C (second compound 3.16 µM, first compound 1 µM): 33.3%
viability, T/C (second compound 10 µM, first compound 0.00316 µM): 18.4%
viability, T/C (second compound 10 µM, first compound 0.01 µM): 17.3%
viability, T/C (second compound 10 µM, first compound 0.0316 µM): 22.3%
viability, T/C (second compound 10 µM, first compound 0.1 µM): 19.4%
viability, T/C (second compound 10 µM, first compound 0.316 µM): 20.2%
viability, T/C (second compound 10 µM, first compound 1 µM): 26.9%

pIC50 (second compound 0.000949 µM): < 6.00
pIC50 (second compound 0.003 µM): 7.02
pIC50 (second compound 0.00949 µM): 8.23
pIC50 (second compound 0.03 µM): > 8.50
pIC50 (second compound 0.0949 µM): > 8.50
pIC50 (second compound 0.3 µM): > 8.50
Structure (SMILES): CCN1CCN(Cc2ccc(Nc3ncc(F)c(-c4cc(F)c5nc(C)n(C(C)C)c5c4)n3)nc2)CC1 + CCn1c(-c2cc(N3CCN(C)CC3)cnc2C(C)OC)c2c3cc(ccc31)-c1csc(n1)CC(NC(=O)C1CC1C)C(=O)N1CCCC(N1)C(=O)OCC(C)(C)C2
viability, T/C (second compound 0.000949 µM, first compound 0.00316 µM): 81.5%
viability, T/C (second compound 0.000949 µM, first compound 0.01 µM): 62.4%
viability, T/C (second compound 0.000949 µM, first compound 0.0316 µM): 66.9%
viability, T/C (second compound 0.000949 µM, first compound 0.1 µM): 58.1%
viability, T/C (second compound 0.000949 µM, first compound 0.316 µM): 62.6%
viability, T/C (second compound 0.000949 µM, first compound 1 µM): 58%
viability, T/C (second compound 0.003 µM, first compound 0.00316 µM): 63.4%
viability, T/C (second compound 0.003 µM, first compound 0.01 µM): 66.9%
viability, T/C (second compound 0.003 µM, first compound 0.0316 µM): 62.3%
viability, T/C (second compound 0.003 µM, first compound 0.1 µM): 49.5%
viability, T/C (second compound 0.003 µM, first compound 0.316 µM): 46.2%
viability, T/C (second compound 0.003 µM, first compound 1 µM): 47.5%
viability, T/C (second compound 0.00949 µM, first compound 0.00316 µM): 56.6%
viability, T/C (second compound 0.00949 µM, first compound 0.01 µM): 45.9%
viability, T/C (second compound 0.00949 µM, first compound 0.0316 µM): 37%
viability, T/C (second compound 0.00949 µM, first compound 0.1 µM): 30.4%
viability, T/C (second compound 0.00949 µM, first compound 0.316 µM): 34%
viability, T/C (second compound 0.00949 µM, first compound 1 µM): 33.1%
viability, T/C (second compound 0.03 µM, first compound 0.00316 µM): 24.2%
viability, T/C (second compound 0.03 µM, first compound 0.01 µM): 30.9%
viability, T/C (second compound 0.03 µM, first compound 0.0316 µM): 30.9%
viability, T/C (second compound 0.03 µM, first compound 0.1 µM): 24.4%
viability, T/C (second compound 0.03 µM, first compound 0.316 µM): 26.3%
viability, T/C (second compound 0.03 µM, first compound 1 µM): 29.4%
viability, T/C (second compound 0.0949 µM, first compound 0.00316 µM): 30.6%
viability, T/C (second compound 0.0949 µM, first compound 0.01 µM): 26.6%
viability, T/C (second compound 0.0949 µM, first compound 0.0316 µM): 15.7%
viability, T/C (second compound 0.0949 µM, first compound 0.1 µM): 22.2%
viability, T/C (second compound 0.0949 µM, first compound 0.316 µM): 24.3%
viability, T/C (second compound 0.0949 µM, first compound 1 µM): 25.4%
viability, T/C (second compound 0.3 µM, first compound 0.00316 µM): 23.3%
viability, T/C (second compound 0.3 µM, first compound 0.01 µM): 24.7%
viability, T/C (second compound 0.3 µM, first compound 0.0316 µM): 17.5%
viability, T/C (second compound 0.3 µM, first compound 0.1 µM): 17.7%
viability, T/C (second compound 0.3 µM, first compound 0.316 µM): 18.1%
viability, T/C (second compound 0.3 µM, first compound 1 µM): 29.2%
